The values that follow are results of earlier work, collected in US12251467B2, “Vaginal hydrogel for delivery of therapeutics” (priority 2018, dated 2025).

Structures are written as SMILES. Values after ≈ are worked out from the molar mass of the structure shown.

As to `Cc1ncc([N+](=O)[O-])n1CCOC(=O)c1ccccc1` [metronidazole benzoate], the solubility in water is 100 µg/mL (≈ 363 µM).
